Experimental data published in publication PMC10439028, “SGLT5 is the renal transporter for 1,5-anhydroglucitol, a major player in two rare forms of neutropenia” (Cellular and Molecular Life Sciences: CMLS, 2023).

Target: T1, hSGLT5 Asn96Ile (Homo sapiens, UniProt A0PJK1, N96I)
T1 construct: pUB83-hSGLT5-iso2 as well as the various SGLT5 mutants obtained were used to transduce HEK293T cells; expressed in transfected cells; host or cells: HEK293T, lentiviral transduction (pUB83)
T1 sequence (A0PJK1 1-596 N96I): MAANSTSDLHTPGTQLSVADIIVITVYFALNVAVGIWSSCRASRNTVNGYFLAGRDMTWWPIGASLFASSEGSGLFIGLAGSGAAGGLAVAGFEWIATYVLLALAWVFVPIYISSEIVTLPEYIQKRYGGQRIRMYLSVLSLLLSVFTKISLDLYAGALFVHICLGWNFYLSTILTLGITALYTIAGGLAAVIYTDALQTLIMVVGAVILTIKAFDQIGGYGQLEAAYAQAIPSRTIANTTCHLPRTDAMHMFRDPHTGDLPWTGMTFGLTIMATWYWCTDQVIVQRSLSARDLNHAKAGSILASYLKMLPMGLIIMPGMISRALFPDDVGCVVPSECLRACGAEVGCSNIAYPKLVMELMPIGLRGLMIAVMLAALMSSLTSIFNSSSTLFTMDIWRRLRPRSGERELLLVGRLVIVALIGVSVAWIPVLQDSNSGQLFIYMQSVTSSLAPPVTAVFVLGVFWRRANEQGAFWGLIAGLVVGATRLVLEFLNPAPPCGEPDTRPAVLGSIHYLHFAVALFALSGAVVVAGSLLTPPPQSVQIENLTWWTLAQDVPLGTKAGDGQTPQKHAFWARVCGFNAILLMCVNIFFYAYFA
Assay: Inhibition of 10 µM 1,5-AG transport by SGLT5 variant Asn96Ile
Assay type: cell-based
Settings: mutation Asn96Ile versus SGLT5, Fig. 5D
Experimental: The transport experiments to study the specificity of SGLT4 or SGLT5, were performed in the presence of 10 µM U-[^14C + ^12C]-mannose (for SGLT4) or 2-[^3H + ^1H]-1,5-AG (for SGLT5) and increasing concentrations of various sugars tested. The transport experiments to study the inhibition of empagliflozin, dapagliflozin or remogliflozin, on the transport of 1,5-AG by SGLT5 or its variants were performed in the presence of 10 µM 2-[^3H + ^1H]-1,5-AG and increasing concentrations of the various gliflozins tested.
SGLT5 mutants were created using the quick-change site directed mutagenesis method that enables effective mutagenesis without subcloning of the amplified PCR products. Complementary primer pairs carrying the desired replacements (Supplementary Table 3) were designed using an online tool (https://www.agilent.com/store/primerDesignProgram.jsp). The PCR protocol was carried out following the manufacturer instructions regarding the KOD HOT Start polymerase kit (TOYOBO™, Novagen). The amplified DNA was cleaned-up from the reactions constituents using the GeneJET PCR purification Kit (Thermo Scientific™) and the size of the DNA fragment were verified by DNA agarose-gel electrophoresis. […]

OC[C@H]1O[C@@H](c2ccc(Cl)c(Cc3ccc(O[C@H]4CCOC4)cc3)c2)[C@H](O)[C@@H](O)[C@@H]1O [empagliflozin]
effect of mutation on inhibition exerted by empagliflozin: considerably decreased (by more than tenfold)
